Reference: patent US20230023009A1, “HETEROCYCLIC COMPOUNDS AND METHODS OF USE THEREOF” (SPARCBIO LLC, priority 2020, published 2023)

Biological target: KRAS G12C protein (Homo sapiens, UniProt P01116, G12C)
Assay: Nucleotide exchange assay (Method III, KRAS G12C/Raf-RBD TR-FRET)
Type: biochemical
Conditions: SOS1-mediated exchange of GDP for GTP, 18 hr compound incubation
Experimental: Method III. Inhibition of SOS1-mediated exchange of GDP for GTP on the KRAS G12C protein was measured in a biochemical assay that monitors association of KRAS G12C protein with the Ras-binding domain of Raf (Raf-RBD), where the association is coupled to exchange of GDP to GTP on the KRAS G12C protein. The assay was performed at WuXi AppTec (Shanghai, China). Compounds were serially diluted in 3-fold dilutions to 11 concentrations and spotted into the wells of an assay plate in a total volume of 150 nL DMSO per well. A 2× enzyme mix was prepared by diluting GDP-bound, His-tagged KRAS G12C to 25 nM in assay buffer. 10 μL/well of 2× enzyme mix was added to all wells, and the plate was sealed and incubated overnight (18 hr) at 23° C. 4×SOS1/GDP and 4×SOS1/GTP were prepared in assay buffer. 5 μL/well of 4×SOS1/GDP mix was added to negative control wells, 5 μL/well of 4×SOS1/GTP mix was added to the remaining wells, and the plate was further incubated at 23° C. for 1 hr. Finally, FLAG-tagged Raf-RBD is added to the reaction mixture along with a pair of FRET donor- and acceptor-conjugated antibodies specific for the FLAG-tagged Raf-RBD and His-tagged KRAS G12C proteins. A 4×Raf-RBD/Tb-anti-FLAG/D2-anti-His mix was prepared in assay buffer, and 5 μL/well of the mix was added to all wells, followed by incubation at room temperature for 2 hr. The TR-FRET signals, which increase with association of KRAS G12C and Raf-RBD, were measured on a Perkin Elmer Envision 2104 plate reader, and data were analyzed by non-linear regression to obtain IC50 values for inhibition by compounds. Table 2 includes results of the assay of Method III. ‘+++’ indicates IC50 values≤300 nM, ‘++’ indicates IC50 values between 300 nM-3 μM, and ‘+’ indicates IC50 values≥3 μM.

Chain of KRAS G12C protein (P01116 1-188 isoform P01116-2 G12C): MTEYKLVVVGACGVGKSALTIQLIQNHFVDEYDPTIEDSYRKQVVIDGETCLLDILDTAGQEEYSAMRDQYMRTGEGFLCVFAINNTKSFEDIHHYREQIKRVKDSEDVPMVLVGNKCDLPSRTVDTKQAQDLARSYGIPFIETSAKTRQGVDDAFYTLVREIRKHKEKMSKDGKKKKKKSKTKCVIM

| Structure (SMILES) | IC50 [µM] |
| --- | --- |
| C=C(F)C(=O)N1CCN(c2nc(OC[C@@H]3CCCN3C)nc3c2OCC(c2cccc4cccc(Cl)c24)O3)C[C@@H]1CC#N (single isomer, unassigned) [64 (Isomer A)] | 0.3 to 3 |
| C=C(F)C(=O)N1CCN(c2nc(OC[C@@H]3CCCN3C)nc3c2COC(c2cccc4sc(N)nc24)C3)C[C@@H]1CC#N (single isomer, unassigned) [260 (Isomer B)] | ≤ 0.3 |
| C=C(C)C(=O)N1CCN(c2nc(OC[C@@H]3CCCN3C)nc3c2COC(c2cccc4cccc(Cl)c24)C3)C[C@@H]1CC#N (single isomer, unassigned) [240 (Isomer A)] | ≥ 3 |
| CN(C)C/C=C/C(=O)N1CCN(c2nc(OC[C@@H]3CCCN3C)nc3c2COC(c2cccc4cccc(Cl)c24)C3)C[C@@H]1CC#N (single isomer, unassigned) [242 (Isomer B)] | ≤ 0.3 |
| C=C(F)C(=O)N1CCN(c2nc(OC[C@@H]3CCCN3C)nc3c2COC(c2cccc4cccc(Cl)c24)C3)[C@@H](C)C1 (single isomer, unassigned) [44 (Isomer A)] | ≥ 3 |
| C=C(F)C(=O)N1CCN(c2nc(OC[C@@H]3CCCN3C)nc3c2OCC(c2cccc4cccc(Cl)c24)O3)C[C@@H]1CC#N (single isomer, unassigned) [64 (Isomer B)] | 0.3 to 3 |
| C=C(F)C(=O)N1CCN(c2nc(NCCC(=O)N(C)C)nc3c2COC(c2cccc4cccc(Cl)c24)C3)C[C@@H]1CC#N (single isomer, unassigned) [232 (Isomer B)] | ≥ 3 |
| C=CC(=O)N1CCN(c2nc(OC[C@@H]3CCCN3C)nc3c2OCC(c2cccc4cccc(Cl)c24)O3)CC1 (single isomer, unassigned) [135 (Isomer B)] | ≥ 3 |
| C=C(F)C(=O)N1CCN(c2nc(N3CCC(N(CC)CC)CC3)nc3c2COC(c2cccc4cccc(Cl)c24)C3)C[C@@H]1CC#N (single isomer, unassigned) [230 (Isomer A)] | ≥ 3 |
| C=C(F)C(=O)N1CCN(c2nc(Nc3cnn(C)c3)nc3c2COC(c2cccc4cccc(Cl)c24)C3)C[C@@H]1CC#N (single isomer, unassigned) [233 (Isomer B)] | ≥ 3 |
| CC#CC(=O)N1CCN(c2nc(OC[C@@H]3CCCN3C)nc3c2COC(c2cccc4cccc(Cl)c24)C3)C[C@@H]1CC#N (single isomer, unassigned) [243 (Isomer A)] | ≥ 3 |
| C=C(F)C(=O)N1C[C@H](C)N(c2nc(OC[C@@H]3CCCN3C)nc3c2COC(c2cccc4cccc(Cl)c24)C3)C[C@H]1C (single isomer, unassigned) [235 (Isomer A)] | ≥ 3 |
| C=C(F)C(=O)N1CCN(c2nc(OC3CCN(C)CC3)nc3c2COC(c2cccc4cccc(Cl)c24)C3)C[C@@H]1CC#N (single isomer, unassigned) [234 (Isomer B)] | 0.3 to 3 |
| C=C(F)C(=O)N1CCN(c2nc(OC[C@@H]3CCCN3C)nc3c2OCC(c2cccc4cccc(Cl)c24)O3)[C@@H](C)C1 (single isomer, unassigned) [136 (Isomer B)] | ≥ 3 |
| C=C(Cl)C(=O)N1CCN(c2nc(OC[C@@H]3CCCN3C)nc3c2COC(c2cccc4cccc(Cl)c24)C3)C[C@@H]1CC#N (single isomer, unassigned) [239 (Isomer A)] | ≥ 3 |
| C=C(C)C(=O)N1CCN(c2nc(OC[C@@H]3CCCN3C)nc3c2COC(c2cccc4cccc(Cl)c24)C3)C[C@@H]1CC#N (single isomer, unassigned) [240 (Isomer B)] | ≥ 3 |
| C=C(F)C(=O)N1CCN(c2nc(OC3CN(C)CC3C)nc3c2COC(c2cccc4cccc(Cl)c24)C3)C[C@@H]1CC#N (single isomer, unassigned) [272 (Isomer A)] | ≥ 3 |

| Structure (SMILES) | IC50 [µM] |
| --- | --- |
| C=C(F)C(=O)N1CCN(c2nc(OC[C@@H]3CCCN3C)nc3c2OCC(c2cccc4cccc(Cl)c24)O3)[C@@H](C)C1 (single isomer, unassigned) [136 (Isomer A)] | ≥ 3 |
| C=C(F)C(=O)N1CCN(c2nc(N3CC(N(CC)CC)C3)nc3c2COC(c2cccc4cccc(Cl)c24)C3)C[C@@H]1CC#N (single isomer, unassigned) [229 (Isomer B)] | ≥ 3 |
| C=C(F)C(=O)N1CCN(c2nc(N3CCC(N(CC)CC)CC3)nc3c2COC(c2cccc4cccc(Cl)c24)C3)C[C@@H]1CC#N (single isomer, unassigned) [230 (Isomer B)] | 0.3 to 3 |
| C=C(F)C(=O)N1CCN(c2nc(OC3CN(C)CC3C)nc3c2COC(c2cccc4cccc(Cl)c24)C3)C[C@@H]1CC#N (single isomer, unassigned) [272 (Isomer C)] | ≤ 0.3 |
| C=C(F)C(=O)N1CCN(c2nc(OC3CN(C)CC3C)nc3c2COC(c2cccc4cccc(Cl)c24)C3)C[C@@H]1CC#N (single isomer, unassigned) [272 (Isomer B)] | ≥ 3 |
| C=C(F)C(=O)N1CCN(c2nc(OC3CN(C)CC3C)nc3c2COC(c2cccc4cccc(Cl)c24)C3)C[C@@H]1CC#N (single isomer, unassigned) [272 (Isomer D)] | 0.3 to 3 |
| C=C(F)C(=O)N1CCN(c2nc(NC3CCN(S(C)(=O)=O)CC3)nc3c2COC(c2cccc4cccc(Cl)c24)C3)C[C@@H]1CC#N (single isomer, unassigned) [231 (Isomer B)] | ≥ 3 |
| C=C(F)C(=O)N1CCN(c2nc(OC[C@@H]3CCCN3C)nc3c2COC(c2cccc4cccc(Cl)c24)C3)CC1(C)C (single isomer, unassigned) [238 (Isomer A)] | ≥ 3 |
| C/C=C/C(=O)N1CCN(c2nc(OC[C@@H]3CCCN3C)nc3c2COC(c2cccc4cccc(Cl)c24)C3)C[C@@H]1CC#N (single isomer, unassigned) [241 (Isomer B)] | 0.3 to 3 |
| C=C(F)C(=O)N1[C@H](C)CN(c2nc(OC[C@@H]3CCCN3C)nc3c2COC(c2cccc4cccc(Cl)c24)C3)C[C@@H]1C (single isomer, unassigned) [237 (Isomer A)] | ≥ 3 |
| C=C(F)C(=O)N1CCN(c2nc(OC[C@@H]3CCCN3C)nc3c2CC=C(c2cccc4cccc(Cl)c24)O3)CC1 [Compound 174, (S)-1-(4-(7-(8-chloronaphthalen-1-yl)-2-((1-methylpyrrolidin-2-yl)methoxy)-5H-pyrano[2,3-d]pyrimidin-4-yl)piperazin-1-yl)-2-fluoroprop-2-en-1-one] | ≥ 3 |
| C=CC(=O)N1CCN(c2nc(OC[C@@H]3CCCN3C)nc3c2OCC(c2cccc4cccc(Cl)c24)O3)CC1 (single isomer, unassigned) [135 (Isomer A)] | ≥ 3 |
| C=C(F)C(=O)N1CCN(c2nc(Oc3cccc4c3CCN(C)C4)nc3c2COC(c2cccc4cccc(Cl)c24)C3)C[C@@H]1CC#N (single isomer, unassigned) [250 (Isomer B)] | 0.3 to 3 |
| C=C(F)C(=O)N1CCN(c2nc(Oc3cccc4c3CN(C)CC4)nc3c2COC(c2cccc4cccc(Cl)c24)C3)C[C@@H]1CC#N (single isomer, unassigned) [249 (Isomer B)] | ≥ 3 |
| C=C(F)C(=O)N1[C@H](C)CN(c2nc(OC[C@@H]3CCCN3C)nc3c2COC(c2cccc4cccc(Cl)c24)C3)C[C@@H]1C (single isomer, unassigned) [237 (Isomer B)] | ≥ 3 |
| C=C(F)C(=O)N1CCN(c2nc(OC[C@@H]3CCCN3C)nc3c2COC(c2cccc4cccc(Cl)c24)C3)C[C@H]1C (single isomer, unassigned) [42 (Isomer B)] | ≥ 3 |
| C=C(F)C(=O)N1CCN(c2nc(Oc3cccc4c3CCN(C)C4)nc3c2COC(c2cccc4cccc(Cl)c24)C3)C[C@@H]1CC#N (single isomer, unassigned) [250 (Isomer A)] | 0.3 to 3 |
